Source: patent US10167279B2 (NOVARTIS AG, priority 2014, dated 2019)

Target: C-Raf FL (Homo sapiens (Human), UniProt P04049, Y340E/Y341E)
Assay: In vitro Raf activity determination (Alpha Screen, phospho-MEK), C-Raf FL (full length, Y340E/Y341E)
Assay type: biochemical
Conditions: ATP 1 μM; 60 min pre-incubation; 1 hour reaction; column head does not say FL or TR
Description: The activity of a compound according to the present invention can be assessed by well-known in vitro & in vivo methods. Raf inhibition data provided herein was obtained using the following procedures.
Sf9 cells co-expressing both proteins were lysed and subjected to immobilized nickel chromatography and eluted with Imidazole. A second column (StrepII binding column) was used and eluted with desthiobiotin. Protein Tags were removed using Prescission enzyme and the protein was further purified using a flowthrough step to remove tags.
C-Raf TR refers to a truncated C-Raf protein, a Δ1-324 deletion mutant. C-Raf FL refers to the full-length C-Raf protein.
Full length MEK1 with an inactivating K97R ATP binding site mutation is utilized as a RAF substrate. The MEK1 cDNA was subcloned with an N-terminal (his)6 tag into a vector for E. Coli expression. The MEK1 substrate was purified from E. Coli lysate by nickel affinity chromatography followed by anion exchange. The final MEK1 preparation was biotinylated (Pierce EZ-Link Sulfo-NHS-LC-Biotin) and concentrated.
Assay protocol: Raf and biotinylated Mek (kinase dead) were combined at 2× final concentrations in assay buffer (50 mM Tris, pH 7.5, 15 mM MgCl2, 0.01% BSA and 1 mM DTT) and dispensed […] per well in assay plates (Greiner white 384 well assay plates #781207) containing […] of 40× of a Raf kinase inhibitor test compound diluted in 100% DMSO. The plate was incubated for 60 minutes at room temperature. […] The reactions were stopped and the phosphorylated product was measured using a rabbit anti-p-MEK (Cell Signaling, #9121) antibody and the Alpha Screen IgG (ProteinA) detection Kit (PerkinElmer #6760617R), by the addition of […] to the well of a mixture of the antibody (1:2000 dilution) and detection beads (1:2000 dilution of both beads) in Stop/bead buffer (25 mM EDTA, 50 mM Tris, pH 7.5, 0.01% Tween20). The additions were carried out under dark conditions to protect the detection beads from light. A lid was placed on top of the plate and incubated for 1 hour at room temperature, after which the luminescence was read on a PerkinElmer Envision instrument. The concentration of each compound for 50% inhibition (IC50) was calculated by non-linear regression using XL Fit data analysis software.

C-Raf FL, sequence (P04049 whole entry Y340E/Y341E): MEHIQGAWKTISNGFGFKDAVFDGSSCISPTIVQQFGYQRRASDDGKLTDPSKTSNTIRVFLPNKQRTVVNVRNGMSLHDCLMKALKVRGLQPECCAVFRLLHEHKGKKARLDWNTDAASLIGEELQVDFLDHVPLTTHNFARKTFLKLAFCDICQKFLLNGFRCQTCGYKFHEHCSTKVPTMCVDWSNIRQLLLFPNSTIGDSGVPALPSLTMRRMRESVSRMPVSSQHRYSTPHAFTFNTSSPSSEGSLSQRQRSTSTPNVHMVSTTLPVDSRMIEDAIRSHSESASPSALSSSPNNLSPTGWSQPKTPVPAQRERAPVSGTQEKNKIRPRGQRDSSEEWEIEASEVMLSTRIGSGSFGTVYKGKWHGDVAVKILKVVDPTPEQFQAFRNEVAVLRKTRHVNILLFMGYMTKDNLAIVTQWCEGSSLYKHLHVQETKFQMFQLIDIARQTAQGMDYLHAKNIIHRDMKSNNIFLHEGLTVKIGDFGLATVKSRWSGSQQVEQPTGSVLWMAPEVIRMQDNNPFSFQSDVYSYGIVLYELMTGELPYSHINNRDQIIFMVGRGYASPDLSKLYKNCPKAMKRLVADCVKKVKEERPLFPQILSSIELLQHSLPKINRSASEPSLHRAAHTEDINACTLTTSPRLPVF
C-Raf FL, sequence (P63104 whole entry partner): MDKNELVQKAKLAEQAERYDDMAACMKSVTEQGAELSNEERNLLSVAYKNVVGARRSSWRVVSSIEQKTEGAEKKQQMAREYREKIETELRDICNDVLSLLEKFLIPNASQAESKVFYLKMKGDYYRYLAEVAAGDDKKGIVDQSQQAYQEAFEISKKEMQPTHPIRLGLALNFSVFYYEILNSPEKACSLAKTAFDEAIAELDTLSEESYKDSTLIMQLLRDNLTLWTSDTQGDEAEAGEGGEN

Row | SMILES | IC50 [nM]
1 | Cc1ccc(NC(=O)c2ccnc(C(C)(F)F)c2)cc1-c1cc(OCCO)nc(C2(CF)CCOCC2)c1 [Example 211, 2-(1,1-difluoroethyl)-N-(3-(2-(4-(fluoromethyl)tetrahydro-2H-pyran-4-yl)-6-(2-hydroxyethoxy)pyridin-4-yl)-4-methylphenyl) isonicotinamide] | 0.3
2 | Cc1ccc(NC(=O)c2ccnc(C(F)(F)F)c2)cc1-c1cc(OCCO)nc(C2CCOCC2O)c1 (centres unmarked) [Example 162, N-(3-(2-(2-hydroxyethoxy)-6-(3-hydroxytetrahydro-2H-pyran-4-yl)pyridin-4-yl)-4-methylphenyl)-2-(trifluoromethyl)isonicotinamide] | 1
3 | Cc1ncc(NC(=O)c2ccnc(C(C)(C)C#N)c2)cc1-c1cc(C2(O)COC2)cc(C2(F)COC2)c1 [Example 143, 2-(2-cyanopropan-2-yl)-N-(5-(3-(3-fluorooxetan-3-yl)-5-(3-hydroxyoxetan-3-yl)phenyl)-6-methylpyridin-3-yl)isonicotinamide] | 4.36
4 | Cc1ccc(NC(=O)c2ccnc(C(C)(C)F)c2)cc1-c1cc(C2(O)COC2)cc(C2(F)COC2)c1 [Example 137, N-(3′-(3-fluorooxetan-3-yl)-5′-(3-hydroxyoxetan-3-yl)-6-methyl-[1,1′-biphenyl]-3-yl)-2-(2-fluoropropan-2-yl)isonicotinamide] | 3.32
5 | COc1ncc(-c2cc(NC(=O)c3cc(C(F)(F)F)cc(C(C)(C)N)n3)cnc2C)cc1C1(C(F)F)COC1 [Example 148, 6-(2-aminopropan-2-yl)-N-(5′-(3-(difluoromethyl)oxetan-3-yl)-6′-methoxy-2-methyl-[3,3′-bipyridin]-5-yl)-4-(trifluoromethyl)picolin-amide] | 9.2
6 | Cc1ccc(NC(=O)c2ccnc(C(F)(F)F)c2)cc1-c1cc2c(c(C3CCOCC3)c1)NC(=O)C(C)(CO)O2 (centres unmarked) [Example 242, N-(3-(2-(hydroxymethyl)-2-methyl-3-oxo-5-(tetrahydro-2H-pyran-4-yl)-3,4-dihydro-2H-benzo[b][1,4]oxazin-7-yl)-4-methylphenyl)-2-(trifluoromethyl) isonicotinamide] | 0.1
7 | Cc1ccc(NC(=O)c2ccnc(C(C)(F)F)c2)cc1-c1cc(OCCO)nc(C2CCOCC2)c1 [Example 269, 2-(1,1-difluoroethyl)-N-(3-(2-(2-hydroxyethoxy)-6-(tetrahydro-2H-pyran-4-yl)pyridin-4-yl)-4-methylphenyl) isonicotinamide] | 0.03
8 | CCOc1ncc(-c2cc(NC(=O)c3cccc(C(F)(F)F)c3)cnc2C)cc1C1(CF)CCOC1 (centres unmarked) [Example 167, N-(6′-ethoxy-5′-(3-(fluoromethyl)tetrahydrofuran-3-yl)-2-methyl-[3,3′-bipyridin]-5-yl)-3-(trifluoromethyl) benzamide] | 1
9 | Cc1ccc(NC(=O)c2ccnc(C(F)(F)F)c2)cc1-c1cc(OCCO)nc(C2(CF)COC2)c1 [Example 57, N-(3-(2-(3-(fluoromethyl)oxetan-3-yl)-6-(2-hydroxyethoxy)pyridin-4-yl)-4-methylphenyl)-2-(trifluoromethyl)isonicotin-amide] | 0.149
10 | Cc1ccc(NC(=O)c2ccnc(C(C)(C)F)c2)cc1-c1cnc(OCCO)c(C2(F)COC2)c1 [Example 41, N-(3-(5-(3-fluorooxetan-3-yl)-6-(2-hydroxyethoxy)pyridin-3-yl)-4-methylphenyl)-2-(2-fluoropropan-2-yl)isonicotinamide] | 0.245
11 | Cc1ccc(NC(=O)C2CCNC(C(F)(F)F)C2)cc1-c1cc(C2CCOCC2)nc(N2CCC(C)(N)CC2)c1 (centres unmarked) [Example 320] | 350
12 | Cc1ccc(NC(=O)c2cnnc(C(F)(F)F)c2)cc1-c1cc(OCCO)nc(C2CCOCC2)c1 [Example 271, N-(3-(2-(2-hydroxyethoxy)-6-(tetrahydro-2H-pyran-4-yl)pyridin-4-yl)-4-methylphenyl)-6-(trifluoromethyl) pyridazine-4-carboxamide] | 0.02

Continued by falling IC50, values first:

Row | IC50 [nM] | SMILES
13 | 9 | CCOc1ncc(-c2cc(NC(=O)c3ccnc(C(C)(C)F)c3)cnc2C)cc1C1(CO)CCOC1 (centres unmarked) [Example 292, N-(6′-ethoxy-5′-(3-(hydroxymethyl)tetrahydrofuran-3-yl)-2-methyl-[3,3′-bipyridin]-5-yl)-2-(2-fluoropropan-2-yl)isonicotinamide]
14 | 1 | Cc1ncc(NC(=O)c2ccnc(C(C)(C)F)c2)cc1-c1cccc(C2COC2)c1 [Example 1, 2-(2-fluoropropan-2-yl)-N-(6-methyl-5-(3-(oxetan-3-yl)phenyl)pyridin-3-yl)isonicotinamide]
15 | 1 | CCOc1ncc(-c2cc(NC(=O)c3cccc(C(F)(F)F)c3)cnc2C)cc1C1(C#N)CCOC1 (centres unmarked) [Example 171, N-(5′-(3-cyanotetrahydrofuran-3-yl)-6′-ethoxy-2-methyl-[3,3′-bipyridin]-5-yl)-3-(trifluoromethyl) benzamide]
16 | 0.605 | Cc1ccc(NC(=O)c2ccnc(C(F)(F)F)c2)cc1-c1cc(C2(O)COC2)cc(C2(F)COC2)c1 [Example 135, N-(3′-(3-fluorooxetan-3-yl)-5′-(3-hydroxyoxetan-3-yl)-6-methyl-[1,1′-biphenyl]-3-yl)-2-(trifluoromethyl)isonicotin-amide]
17 | 0.5 | CCOc1ncc(-c2cc(NC(=O)c3ccnc(C(C)(C)F)c3)cnc2C)cc1C1(C)COC1 [Example 3, N-(6′-ethoxy-2-methyl-5′-(3-methyloxetan-3-yl)-[3,3′-bipyridin]-5-yl)-2-(2-fluoropropan-2-yl)isonicotinamide]
18 | 0.4 | Cc1ccc(NC(=O)c2ccnc(C(C)(F)F)c2)cc1-c1cc2c(c(C3CCOCC3)c1)OC(C)(C)C(=O)N2 [Example 197, 2-(1,1-difluoroethyl)-N-(3-(2,2-dimethyl-3-oxo-8-(tetrahydro-2H-pyran-4-yl)-3,4-dihydro-2H-benzo[b][1,4]oxazin-6-yl)-4-methylphenyl) isonicotinamide]
19 | 0.177 | Cc1ccc(NC(=O)c2ccnc(C(C)(F)F)c2)cc1-c1cc(C2(O)COC2)cc(C2(F)COC2)c1 [Example 136, 2-(1,1-difluoroethyl)-N-(3′-(3-fluorooxetan-3-yl)-5′-(3-hydroxyoxetan-3-yl)-6-methyl-[1,1′-biphenyl]-3-yl)isonicotinamide]
20 | 0.1 | Cc1ccc(NC(=O)c2ccnc(C(F)(F)F)c2)cc1-c1cc(NCCO)nc(C2(O)COC2)c1 [Example 299, N-(3-(2-((2-hydroxyethyl)amino)-6-(3-hydroxyoxetan-3-yl)pyridin-4-yl)-4-methylphenyl)-2-(trifluoromethyl) isonicotinamide]
21 | 0.1 | Cc1ccc(NC(=O)c2cncc(C(F)(F)F)c2)cc1-c1cc(OCCO)nc(C2CCOCC2)c1 [Example 265, N-(3-(2-(2-hydroxyethoxy)-6-(tetrahydro-2H-pyran-4-yl)pyridin-4-yl)-4-methylphenyl)-5-(trifluoromethyl) nicotinamide]
22 | 0.05 | Cc1ccc(NC(=O)c2ccnc(C(F)(F)F)c2)cc1-c1cc(C2CCOCC2)c(NC[C@H](C)O)nn1 [Example 311, (S)-N-(3-(6-((2-hydroxypropyl)amino)-5-(tetrahydro-2H-pyran-4-yl)pyridazin-3-yl)-4-methylphenyl)-2-(trifluoromethyl) isonicotinamide]
23 | 0.02 | Cc1ccc(NC(=O)c2cc(C(F)(F)F)cnn2)cc1-c1cc(OCCO)nc(C2CCOCC2)c1 [Example 258, N-(3-(2-(2-hydroxyethoxy)-6-(tetrahydro-2H-pyran-4-yl)pyridin-4-yl)-4-methylphenyl)-5-(trifluoromethyl) pyridazine-3-carboxamide]
